SMILES strings stand for the structures.

The target of one assay is T1, thromboxane synthetase (Rattus norvegicus, UniProt P49430).
T1 construct: The platelets were isolated by centrifuging the PRP for 10 minutes at 1060 xg; endogenous in cells; host or cells: washed platelets from arterial blood of Okamoto-Aoki spontaneously hypertensive rats (Taconic Farms), 19 to 24 weeks old
T1 sequence (P49430 1-533): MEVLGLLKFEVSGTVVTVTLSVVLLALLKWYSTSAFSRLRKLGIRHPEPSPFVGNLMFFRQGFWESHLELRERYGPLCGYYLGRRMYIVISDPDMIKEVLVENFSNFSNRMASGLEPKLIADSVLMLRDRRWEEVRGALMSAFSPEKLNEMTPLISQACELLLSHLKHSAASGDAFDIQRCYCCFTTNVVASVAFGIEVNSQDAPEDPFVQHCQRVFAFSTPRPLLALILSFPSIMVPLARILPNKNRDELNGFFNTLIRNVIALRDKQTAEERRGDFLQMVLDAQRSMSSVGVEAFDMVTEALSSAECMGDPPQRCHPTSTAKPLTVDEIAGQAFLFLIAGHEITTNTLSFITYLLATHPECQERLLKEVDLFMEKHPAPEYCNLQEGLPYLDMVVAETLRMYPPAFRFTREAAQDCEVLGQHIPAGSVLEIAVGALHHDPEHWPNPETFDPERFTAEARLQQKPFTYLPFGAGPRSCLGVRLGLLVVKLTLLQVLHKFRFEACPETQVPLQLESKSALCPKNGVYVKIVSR
The assay can be described thus: Inhibition of thromboxane (TXA2) formation, determined as TXB2 formed by washed SHR platelets (direct RIA). The format is cell-based, Okamoto-Aoki spontaneously hypertensive rats (SHR). Particulars: Dose 10^-4 M, 10 minutes at 37° C., pH 7.4. As for the experimental part: The inhibition of thromboxane (TXA2) formation was studied by determining the concentration of thromboxane B2 (TXB2), the stable hydrolysis product of TXA2.
The blood was diluted with 3 ml cold saline and centrifuged at room temperature for 15 minutes at 460 xg. The platelet rich plasma (PRP) was separated. The platelets were isolated by centrifuging the PRP for 10 minutes at 1060 xg and were washed in 4 ml cold oxygenated Krebs phosphate buffer, pH 7.4. the chilled platelets recovered from centrifuging at 800 xg for 10 minutes were resuspended in oxygenated Krebs phosphate buffer and diluted to contain 4.5-6.0×10^4 platelets/μl. […] The samples were incubated for 10 minutes at 37° C. in a metabolic shaker. The reaction was terminated by immersing the tubes in an ice bath and adding 50 μl of 0.5 M citric acid. The samples were centrifuged for 10 minutes in a refrigerated centrifuge and the supernatants thus obtained were decanted and stored at -20° C. The TXB2 content for each sample was determined by a direct radioimmunoassay (RIA) utilizing a TXB2 specific RIA kit purchased from New England Nuclear, Boston, MA and expressed as pg TXB2 formed minute^-1 sample^-1, from which the percent inhibition of TXB2 formation was calculated.

Assay [1] has as its system spontaneously hypertensive rats of the Okamoto strain. The experiment in a line: Hypotensive activity in spontaneously hypertensive rats, mean arterial blood pressure (method of Chan and Poorvin). The format is in vivo. Particulars: by gavage, 100 mg/kg or less, second identical dose at 24 hours; measured 28 hours after initial dose; SHR average MABP 160±1.5 mm Hg. On the procedure:
Male, 16 week old, spontaneously hypertensive rats of the Okamoto strain, from Taconic Farms, Germantown, N.Y., having an average means arterial blood pressure of 160±1.5 mm of mercury are used in the test. One to three rats are used per test compound. A rat is dosed by gavage with a test compound, suspended in 2% pre-boiled starch at a concentration of 50 mg/ml, at a dose of 100 mg/kg of body weight or less with 0.9% sodium chloride loading at a dose of 25 ml/kg of body weight. A second identical dose of the test compound, without sodium chloride loading is given 24 hours later. At 28 hours after the initial dose the mean arterial blood pressure is measured by the method of Chan and Poorvin vide supra. The procedure is repeated in a second and third rat when necessary.

A word on the inhibition: it is how much of the control response was suppressed. Read a high inhibition as strong suppression. Consider `Cc1nccn1CCCNC(=O)c1cc2ccccc2[nH]1` [N-[3-(2-Methyl-1H-imidazol-1-yl)propyl]-1H-indole2-carboxamide], for which at 100 µM the inhibition against thromboxane synthetase was 44%.

For `O=C(NCCCCCCCCn1ccnc1)c1cc2cc(Cl)ccc2[nH]1` [5-Chloro-N-[8-(1H-imidazol-1-yl)octyl]-1H-indole-2-carboxamide], testing at 100 µM at thromboxane synthetase gave an inhibition of 66%.

Turning to `Cc1cn(CCCNC(=O)c2cc3ccccc3[nH]2)cn1` [N-[3-(4-Methyl-1H-imidazol-1-yl)propyl]-1H-indole-2-carboxamide], in assay [1], the “MABP (mean arterial blood pressure)” value was 131 mm Hg. This molecule also displayed an inhibition at 100 µM against thromboxane synthetase of 100%.

Regarding `O=C(NCCCn1ccnc1-c1ccccc1)c1cc2ccccc2[nH]1` [N-[3-(2-Phenyl-1H-imidazol-1-yl)propyl]-1H-indole-2-carboxamide], on thromboxane synthetase, the inhibition at 100 µM was determined as 91%.

With `CC(CNC(=O)c1cc2cc(Cl)ccc2[nH]1)Cn1ccnc1` (stereo not drawn) [5-Chloro-N-[3-(1H-imidazol-1-yl)-2-methylpropyl]-1Hindole-2carboxamide], in assay [1], the “MABP (mean arterial blood pressure)” value was determined as 123 mm Hg. The molecule also returned an inhibition at 100 µM at thromboxane synthetase of 100%.

In the case of `Cn1c(C(=O)NCCCn2ccnc2)cc2ccccc21` [N-[3-(1H-Imidazol-1-yl)propyl]-1-methyl-1H-indole-2-carboxamide], the inhibition at 100 µM against thromboxane synthetase stood at 88%.

The molecule `Cc1nccn1CCCNC(=O)c1cc2ccccc2n1C` [1-Methyl-N-[3-(2-methyl-1H-imidazol-1-yl)-propyl]-1H-indole-2-carboxamide] returned an inhibition at 100 µM against thromboxane synthetase of 56%.

Consider `O=C(NCCCCn1ccnc1)c1cc2cc(Cl)ccc2[nH]1` [5-Chloro-N-[4-(1H-imidazol-1-yl)butyl]-1H-indole-2-carboxamide], for which the “MABP (mean arterial blood pressure)” value in assay [1] is on record as 118 mm Hg.

As for `O=C(NCCCn1ccnc1)c1cc2ccccc2[nH]1` [N-[3-(1H-Imidazol-1-yl)propyl]-1H-indole-2-carboxamide], in assay [1], the “MABP (mean arterial blood pressure)” value is 114 mm Hg. The molecule further yielded an inhibition at 100 µM at thromboxane synthetase of 94%.

Take `COc1ccc2[nH]c(C(=O)NCCCCn3ccnc3)cc2c1` [5-Methoxy-N-[4-(1H-imidazol-1-yl)butyl]-1H-indole-2-carboxamide]: the “MABP (mean arterial blood pressure)” value in assay [1] came out at 130 mm Hg. Testing at 100 µM on thromboxane synthetase gave an inhibition of 100%.

`O=C(NCCCCn1ccnc1)c1cc2ccccc2[nH]1` [N-[4-(1H-Imidazol-1-yl)butyl]-1H-indole-2-carboxamide]: the “MABP (mean arterial blood pressure)” value in assay [1] is on record as 137 mm Hg. Moreover, at thromboxane synthetase, the inhibition at 100 µM was found to be 100%.

`O=C(NCCCCCn1ccnc1)c1cc2cc(Cl)ccc2[nH]1` [5-Chloro-N-[5-(1H-imidazol-1-yl)pentyl]-1H-indole-2-carboxamide]: in assay [1], the “MABP (mean arterial blood pressure)” value was 124 mm Hg.

As for `Cc1cn(CCCNC(=O)c2cc3cc(Cl)ccc3[nH]2)cn1` [5-Chloro-N-[3-(4-methyl-1H-imidazol-1-yl)propyl]-1H-indole-2-carboxamide], the “MABP (mean arterial blood pressure)” value in assay [1] was determined as 135 mm Hg. On thromboxane synthetase, this molecule showed an inhibition at 100 µM of 100%.

For the molecule `CC(CCNC(=O)c1cc2cc(Cl)ccc2[nH]1)n1ccnc1` (stereo not drawn) [5-Chloro-N-[3-(1H-imidazol-1-yl)-butyl]-1H-indole-2-carboxamide], in assay [1], the “MABP (mean arterial blood pressure)” value turned out to be 119 mm Hg. The inhibition at 100 µM against thromboxane synthetase stood at 98%.

Turning to `COc1ccc2[nH]c(C(=O)NCCCn3ccnc3C)cc2c1` [5-Methoxy-N-[3-(2-methyl-1H-imidazol-1-yl)propyl]-1H-indole-2-carboxamide], at 100 µM the inhibition against thromboxane synthetase was 49%.

Consider `COc1ccc2[nH]c(C(=O)NCCCn3ccnc3)cc2c1` [N-[3-(1H-Imidazol-1-yl)propyl]-5-methoxy-1H-indole-2-carboxamide], for which the inhibition at 100 µM against thromboxane synthetase came out at 96%.

For the molecule `Cc1cn(CCCNC(=O)c2cc3ccccc3n2C)cn1` [1-Methyl-N-[3-(4-methyl-1H-imidazol-1-yl)propyl]-1H-indole-2-carboxamide], the “MABP (mean arterial blood pressure)” value in assay [1] was 136 mm Hg. Further, the inhibition at 100 µM at thromboxane synthetase worked out at 85%.

In turn, `O=C(NCCCn1ccnc1)c1cc2cc(Cl)ccc2[nH]1` [5-Chloro-N-[3-(1H-imidazol-1-yl)propyl]-1H-indole-2-carboxamide] had an inhibition at 100 µM at thromboxane synthetase of 95%.

For the molecule `O=C(NCCCn1ccnc1)c1ccc2[nH]ccc2c1` [N-[3-(1H-Imidazol-1-yl)propyl]-1H-indole-5-carboxamide], the “MABP (mean arterial blood pressure)” value in assay [1] amounted to 133 mm Hg.

For the origin of these results see patent publication US4619941A, “N-[(1H-imidazol-1-yl)alkyl]-1H-indolecarboxamides useful as thromboxane synthetase inhibitors and antihypertensive agents” (American Cyanamid Company, priority 1984, dated 1986).
